Experimental data taken from patent US9732065B2, “Cyclic aminomethyl pyrimidine derivative” (Sumitomo Dainippon Pharma Co., Ltd., priority 2013, dated 2017).

Experiments:
[1] = target: T1, Human dopamine D4 receptor (Homo sapiens, UniProt P21917); experiment: G protein independent pathway: β-arrestin recruit ability (PathHunter β-galactosidase); format: cell-based; set-up: expressed in transfected cells; conditions: β-arrestin recruitment, 90 minutes; 10 μM dopamine = 100%
T1 sequence (P21917 1-419): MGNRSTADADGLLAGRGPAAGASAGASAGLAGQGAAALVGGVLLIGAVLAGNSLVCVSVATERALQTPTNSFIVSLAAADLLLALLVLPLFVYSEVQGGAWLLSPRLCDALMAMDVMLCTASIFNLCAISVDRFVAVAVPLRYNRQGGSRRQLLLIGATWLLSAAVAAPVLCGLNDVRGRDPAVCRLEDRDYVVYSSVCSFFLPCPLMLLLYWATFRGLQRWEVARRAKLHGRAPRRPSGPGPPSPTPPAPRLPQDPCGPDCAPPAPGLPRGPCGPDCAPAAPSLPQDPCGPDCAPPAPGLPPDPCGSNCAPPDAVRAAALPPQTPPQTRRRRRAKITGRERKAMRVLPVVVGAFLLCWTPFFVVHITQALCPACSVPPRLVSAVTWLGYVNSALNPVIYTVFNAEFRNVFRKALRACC
Method: The activation of the G protein independent pathway was evaluated on the basis of the recruit ability of β-arrestin as follows. Cell lines transfected with D4 receptor genes were seeded in a 384-well plate, and incubated in a CO2 incubator at 37° C. for 24 hours, a solution of the present compound in DMSO was added into the cells, and then the cells were left at 37° C. for 90 minutes. Buffer containing β-galactosidase reaction substance (PathHunter Cell Assay Buffer, DiscoverRx) was added thereto, and luminescent signals in the wells were measured with a FDSS (Hamamatsu Photonics K.K.). […] The maximal activity (Emax) of the present compound was calculated according to the measured luminescent signals. EC50 value was calculated as the concentration of the present compound required to achieve a 50 response.

[2] = PK study in rat (bioavailability); format: in vivo; conditions: plasma, oral vs intravenous administration
Method: In this study, the pharmacokinetics of the present compound can be evaluated. Specifically, a 7-week-old SD-type or WKY-type rat received the intravenous administration of a solution of the present compound in saline or the oral administration of a suspension of the present compound in carboxymethylcellulose or methylcellulose. Blood was collected from the rat at each time below.
Intravenous administration: 5 minutes, 15 minutes, 30 minutes, 1 hour, 2 hours, 4 hours, 6 hours, and 24 hours after administration
Oral administration: 15 minutes, 30 minutes, 1 hour, 2 hours, 4 hours, 6 hours, and 24 hours after administration
Plasma was collected from the blood, the levels of the present compound in the plasma were measured by a LC-MS method, and then the pharmacokinetic parameters were calculated on the basis of the level changes.

[3] = target: T2, human adrenergic α2A receptor (Homo sapiens, UniProt P08913); experiment: Agonistic/antagonistic activity in G protein dependent pathway (aequorin intracellular calcium luminescence), α2A; format: cell-based; conditions: for Maximal activity on each receptor (%): α2A: 10 μM adrenaline = 100%; for inhibition at 0.1 µM / inhibition at 1 µM: against 10 μM endogenous ligand, read-out: Inhibitory activity on each receptor (%): α2A
T2 construct: expressed in transfected cells; host or cells: CHO-K1 or HEK293 cells
T2 sequence (P08913 1-465): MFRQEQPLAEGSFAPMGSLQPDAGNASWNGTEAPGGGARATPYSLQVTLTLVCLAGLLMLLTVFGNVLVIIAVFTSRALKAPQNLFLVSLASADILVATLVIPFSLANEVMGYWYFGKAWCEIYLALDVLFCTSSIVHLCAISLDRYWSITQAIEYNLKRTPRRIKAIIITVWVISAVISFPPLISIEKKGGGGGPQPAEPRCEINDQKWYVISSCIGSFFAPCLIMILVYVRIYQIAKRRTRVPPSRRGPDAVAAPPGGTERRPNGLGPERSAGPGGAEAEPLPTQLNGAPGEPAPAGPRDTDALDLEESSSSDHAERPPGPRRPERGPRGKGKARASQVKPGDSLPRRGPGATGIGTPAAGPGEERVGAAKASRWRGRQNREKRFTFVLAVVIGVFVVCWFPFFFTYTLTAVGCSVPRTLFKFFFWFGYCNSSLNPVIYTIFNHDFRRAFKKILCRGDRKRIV
Method: (§1) Plasmids encoding each receptor, aequorin and Gα16 were prepared, and the plasmids were transfected into CHO cells (Chinese Hamster Ovary cells) or HEK293 cells (Human Embryonic Kidney 293 cells) to prepare expressing cell lines.
(§2) The agonistic or antagonistic activity of the present compound in the G protein dependent pathway was evaluated on the basis of intracellular calcium levels as follows. CHO-K1 or HEK293 cell lines transfected with D2, D4, α1A, or α2A receptor genes were seeded in a 384-well plate, and incubated in a CO2 incubator at 37° C. for 24 hours, and then a solution of the present compound in DMSO was added into cells preloaded with coelenterazine to measure the change in luminescent signals with a FDSS (Hamamatsu Photonics K.K.). […] The agonistic activity of the present compound was calculated according to the measured luminescent signals, as the maximal activity (Emax) of the present compound. On the other hand, the antagonistic activity of the present compound was calculated according to the luminescent signals in wells with 10 μM of an endogenous ligand alone defined as 100%, as the inhibitory activity of the present compound to an endogenous ligand. EC50 value was calculated as the concentration of the present compound required to achieve a 50% response, and IC50 was calculated as the concentration of the present compound required to achieve a 50% inhibition of the Emax of an endogenous ligand.

[4] = target: T3, human adrenergic α1A receptor (Homo sapiens, UniProt P35348); experiment: Agonistic/antagonistic activity in G protein dependent pathway (aequorin intracellular calcium luminescence), α1A; format: cell-based; conditions: for Maximal activity on each receptor (%): α1A: 10 μM adrenaline = 100%; for inhibition at 0.1 µM / inhibition at 1 µM: against 10 μM endogenous ligand, read-out: Inhibitory activity on each receptor (%): α1A
T3 construct: expressed in transfected cells; host or cells: CHO-K1 or HEK293 cells
T3 sequence (P35348 1-466): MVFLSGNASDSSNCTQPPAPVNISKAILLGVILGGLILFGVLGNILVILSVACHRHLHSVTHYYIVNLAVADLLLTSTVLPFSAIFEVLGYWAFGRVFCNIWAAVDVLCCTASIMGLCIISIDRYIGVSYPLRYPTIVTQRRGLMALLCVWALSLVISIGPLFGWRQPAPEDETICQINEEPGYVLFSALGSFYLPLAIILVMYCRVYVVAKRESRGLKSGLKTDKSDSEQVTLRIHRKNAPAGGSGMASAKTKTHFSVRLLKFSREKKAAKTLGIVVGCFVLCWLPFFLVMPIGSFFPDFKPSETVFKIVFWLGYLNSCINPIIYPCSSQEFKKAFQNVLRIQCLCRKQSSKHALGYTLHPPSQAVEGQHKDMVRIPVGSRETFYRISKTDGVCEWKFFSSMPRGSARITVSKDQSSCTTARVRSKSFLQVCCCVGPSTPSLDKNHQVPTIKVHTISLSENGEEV
Method: as §1, §2

Maximal activity on D4 receptor (%) [1] [%] | bioavailability [2] [%] | Maximal activity on each receptor (%): α2A ([3]; 0.1 μM) [%] | inhibition at 0.1 µM ([3]; 0.1 μM) [%] | Maximal activity on each receptor (%): α2A ([3]; 1 μM) [%] | inhibition at 1 µM ([3]; 1 μM) [%] | Maximal activity on each receptor (%): α1A ([4]; 0.1 μM) [%] | inhibition at 0.1 µM ([4]; 0.1 μM) [%] | Maximal activity on each receptor (%): α1A ([4]; 1 μM) [%] | inhibition at 1 µM ([4]; 1 μM) [%] | SMILES
11 | 16.8 | −0.17 | -7 | −0.04 | -1.7 | 2.1 | 2.1 | −0.1 | -1.7 | Cc1ncc(CN2CCC(c3ccccn3)CC2)c(N)n1 [Example 5, 2-Methyl-5-[4-(pyridin-2-yl)piperidin-1-ylmethyl]pyrimidin-4-amine]
21 | 60.1 | −0.1 | 0.91 | −0.12 | 7.8 | 0.4 | -34 | 0.85 | -5.4 | Cc1ncc(CN2CCC(c3cncc(F)c3)CC2)cn1 [Example 33, 5-[4-(5-Fluoropyridin-3-yl)piperidin-1-ylmethyl]-2-methylpyrimidine]
9 | 81.7 | −0.17 | 7.9 | −0.27 | 0.24 | 0.31 | -22 | 0.44 | -14 | Nc1ncc(CN2CCC(c3cccnc3)CC2)cn1 [Example 37]
